Values quoted from earlier work as cited in US20120148512A1, “Method for Increasing the Sun Protection Factor of a Cosmetic and/or Dermatological Preparation” (BASF SE, priority 2006, published 2012).

## O=S(=O)(O)c1ccc2nc(-c3ccccc3)[nH]c2c1 [2-phenylbenzimidazole-5-sulfonic acid]
Following sun-simulated irradiation (5 and 10 MED)
  absorption retained in the absorption maximum: more than 90%

## COc1ccc(C(=O)CC(=O)c2ccc(C(C)(C)C)cc2)cc1 [BMDBM, 4-(tert-butyl)-4′-methoxydibenzoylmethane]
Filter substance on its own
  photostability: not photostable
